Experimental data reported in patent publication US10947188B2, “Small molecule ferroptosis inducers” (THE TRUSTEES OF COLUMBIA UNIVERSITY IN THE CITY OF NEW YORK, priority 2016, dated 2021).

Tests used:
[1] = test system: HT-1080; test: Modulatory profiling: Alamar Blue viability, lethal compound cotreated with death modulator (EC50, AUC); format: cell-based; parameters: AUC, modulator HT.3MA / AUC, modulator HT.ALLN / AUC HT.ATA / AUC HT.ActD / AUC HT.BHA / AUC HT.BHT / AUC HT.BocD / AUC HT.CHX / AUC HT.Co2+ / AUC HT.DPQ / AUC HT.EGTA / AUC HT.Lmim / AUC HT.NAD+ / AUC HT.Nec-1 / AUC HT.SP600125 / AUC HT.TLCK / AUC HT.U0126: unit not given beside the values; settings: for AUC HT.ATA: HT-1080, modulator ATA; for AUC HT.ActD: HT-1080, modulator ActD; for AUC HT.BHA: HT-1080, modulator BHA; for AUC HT.BHT: HT-1080, modulator BHT; for AUC HT.BocD: HT-1080, modulator BocD; for AUC HT.CHX: HT-1080, modulator CHX; for AUC HT.Co2+: HT-1080, modulator Co2+; for AUC HT.CspA: HT-1080, modulator CspA; for AUC HT.DPQ: HT-1080, modulator DPQ; for AUC HT.EGTA: HT-1080, modulator EGTA; for AUC HT.Gd3+: HT-1080, modulator Gd3+; for AUC HT.LNAME: HT-1080, modulator LNAME; for AUC HT.Lmim: HT-1080, modulator Lmim; for AUC HT.NAD+: HT-1080, modulator NAD+; for AUC HT.NMMA: HT-1080, modulator NMMA; for HT.atoc (AUC) / HT.bCarotene (AUC) / HT.deferox (AUC) / HT.digoxin (AUC) / HT.trolox (AUC) / HT.zVAD (AUC): HT-1080; for HT.atoc (AUC): modulator atoc; for HT.bCarotene (AUC): modulator bCarotene; for HT.deferox (AUC): modulator deferox; for HT.digoxin (AUC): modulator digoxin; for HT.trolox (AUC): modulator trolox; for HT.zVAD (AUC): modulator zVAD; as to AUC HT.BHA: reference of the scale not given here; as to AUC HT.EGTA: reference of the scale not given here
[2] = test system: BJeLR; test: as above; format: cell-based, human; parameters: AUC, modulator BJ.Gd3+ / AUC, modulator BJ.LNAME / AUC, modulator BJ.Lmin / AUC, modulator BJ.3MA / AUC, modulator BJ.ALLN / AUC, modulator BJ.Boc D / AUC, modulator BJ.CHX / AUC, modulator BJ.Co2+ / AUC, modulator BJ.Nec-1 / AUC, modulator BJ.Pepstatin / AUC, modulator BJ.TLCK / AUC, modulator BJ.atoc / AUC, modulator BJ.trolox / AUC, modulator BJ.zVAD: unit not given beside the values; settings: BJeLR cells, modulatory profile value (AUC); for AUC, modulator BJ.3MA: lethal compound cotreated with modulator 3MA; for AUC, modulator BJ.ALLN: lethal compound cotreated with modulator ALLN; for AUC, modulator BJ.Boc D: lethal compound cotreated with modulator Boc D; for AUC, modulator BJ.CHX: lethal compound cotreated with modulator CHX; for AUC, modulator BJ.Co2+: lethal compound cotreated with modulator Co2+; for AUC, modulator BJ.DPQ: lethal compound cotreated with modulator DPQ; for AUC, modulator BJ.Gd3+: lethal compound cotreated with modulator Gd3+; for AUC, modulator BJ.LNAME: lethal compound cotreated with modulator LNAME; for AUC, modulator BJ.Lmin/NAD+: lethal compound cotreated with modulator Lmin/NAD+; for AUC, modulator BJ.Lmin: lethal compound cotreated with modulator Lmin; for AUC, modulator BJ.NAD+: lethal compound cotreated with modulator NAD+; for AUC, modulator BJ.NMMA: lethal compound cotreated with modulator NMMA; for AUC, modulator BJ.Nec-1: lethal compound cotreated with modulator Nec-1; for AUC, modulator BJ.Pepstatin: lethal compound cotreated with modulator Pepstatin; for AUC, modulator BJ.TLCK: lethal compound cotreated with modulator TLCK; as to AUC, modulator BJ.3MA: reference of the scale not given here; as to AUC, modulator BJ.ALLN: reference of the scale not given here; as to AUC, modulator BJ.Boc D: reference of the scale not given here; as to AUC, modulator BJ.CHX: reference of the scale not given here; as to AUC, modulator BJ.Co2+: reference of the scale not given here; as to AUC, modulator BJ.DPQ: reference of the scale not given here; as to AUC, modulator BJ.Gd3+: reference of the scale not given here; as to AUC, modulator BJ.LNAME: reference of the scale not given here; as to AUC, modulator BJ.NAD+: reference of the scale not given here; as to AUC, modulator BJ.NMMA: reference of the scale not given here; as to AUC, modulator BJ.Nec-1: reference of the scale not given here; as to AUC, modulator BJ.Pepstatin: reference of the scale not given here; as to AUC, modulator BJ.TLCK: reference of the scale not given here

## CCOC(=O)[C@@H]1[C@@H](c2ccccc2)C(=O)CCN1NC(=O)c1ccccc1 [CIL89]
[1]
  AUC HT.ATA: 0.05896
  AUC HT.ActD: 0.03977
  AUC HT.BHA: −0.006147
  AUC HT.BHT: −0.1188
  AUC HT.BocD: −0.004667
  AUC HT.CHX: −0.008693
  AUC HT.Co2+: 0.008377
  AUC HT.CspA: −0.06906
  AUC HT.DPQ: −0.005287
  AUC HT.EGTA: 0.04226
  AUC HT.Gd3+: −0.04594
  AUC HT.LNAME: 0.003061
  AUC HT.Lmim: 0.02342
  AUC HT.NAD+: 0.02662
  AUC HT.NMMA: −0.009041
  HT.atoc (AUC): 0.0671
  HT.bCarotene (AUC): 0.01857
  HT.deferox (AUC): 0.04587
  HT.digoxin (AUC): 0.01146
  HT.trolox (AUC): −0.02147
  HT.zVAD (AUC): 0.03058
[2]
  AUC, modulator BJ.3MA: −0.01648
  AUC, modulator BJ.ALLN: −0.1204
  AUC, modulator BJ.Boc D: 0.03243
  AUC, modulator BJ.CHX: 0.1968
  AUC, modulator BJ.Co2+: 0.01721
  AUC, modulator BJ.DPQ: −0.02598
  AUC, modulator BJ.Gd3+: −0.07038
  AUC, modulator BJ.LNAME: 0.03646
  AUC, modulator BJ.Lmin/NAD+: 0.04069
  AUC, modulator BJ.Lmin: 0.03551
  AUC, modulator BJ.NAD+: −0.03932
  AUC, modulator BJ.NMMA: −0.02344
  AUC, modulator BJ.Nec-1: −0.02957
  AUC, modulator BJ.Pepstatin: −0.006292
  AUC, modulator BJ.TLCK: −0.06676

## COc1ccc(N(C(=O)CCl)C(C(=O)NCCc2ccccc2)c2cccs2)cc1 (stereo not shown) [DPI4]
[1]
  AUC HT.ATA: −0.03622
  AUC HT.ActD: −0.006831
  AUC HT.BHA: 0.285
  AUC HT.BHT: 0.2486
  AUC HT.BocD: −0.01407
  AUC HT.CHX: −0.008699
  AUC HT.Co2+: 0.1741
  AUC HT.CspA: 5.8801E−05
  AUC HT.DPQ: 0.05528
  AUC HT.EGTA: 0.0361
  AUC HT.Gd3+: −0.02121
  AUC HT.LNAME: 0.01547
  AUC HT.Lmim: 0.3086
  AUC HT.NAD+: 0.02441
  AUC HT.NMMA: −0.0007723
  HT.atoc (AUC): 0.3523
  HT.bCarotene (AUC): −0.01264
  HT.deferox (AUC): 0.4095
  HT.digoxin (AUC): −0.06343
  HT.trolox (AUC): 0.3151
  HT.zVAD (AUC): −0.04451
[1]; HT-1080, modulator Nec-1
  AUC HT.Nec-1: 0.05135
[1]; HT-1080, modulator Pepstatin
  AUC HT.Pepstatin: −0.003295
[1]; HT-1080, modulator SP600125
  AUC HT.SP600125: −0.04284
[1]; HT-1080, modulator TLCK
  AUC HT.TLCK: 0.1761
[1]; HT-1080, modulator U0126
  AUC HT.U0126: 0.3423
[1]; HT-1080 cells, lethal compound cotreated with modulator 3MA, modulatory profile value (AUC)
  AUC, modulator HT.3MA: −0.001458
[1]; HT-1080 cells, lethal compound cotreated with modulator ALLN, modulatory profile value (AUC)
  AUC, modulator HT.ALLN: −0.1648
[2]
  AUC, modulator BJ.3MA: 0.0813
  AUC, modulator BJ.ALLN: −0.07596
  AUC, modulator BJ.Boc D: −0.0206
  AUC, modulator BJ.CHX: −0.04482
  AUC, modulator BJ.Co2+: 0.116
  AUC, modulator BJ.DPQ: 0.02148
  AUC, modulator BJ.Gd3+: 0.06864
  AUC, modulator BJ.LNAME: 0.00317
  AUC, modulator BJ.Lmin/NAD+: 0.1443
  AUC, modulator BJ.Lmin: 0.1443
  AUC, modulator BJ.NAD+: 0.03153
  AUC, modulator BJ.NMMA: 0.004961
  AUC, modulator BJ.Nec-1: 0.1295
  AUC, modulator BJ.Pepstatin: 0.03966
  AUC, modulator BJ.TLCK: 0.1612
[2]; lethal compound cotreated with modulator atoc
  AUC, modulator BJ.atoc: 0.2611
[2]; lethal compound cotreated with modulator trolox
  AUC, modulator BJ.trolox: 0.2547
[2]; lethal compound cotreated with modulator zVAD
  AUC, modulator BJ.zVAD: −0.02179
